≈ marks a conversion by molar mass, not a printed value.
Key:
[1] = cited from earlier work
[2] = Conversion of the methanol solvate on drying; type: physicochemical
Excerpt: In another embodiment the invention relates to a novel methanol solvate of Aprepitant. The methanol solvate is useful for the purification of Aprepitant.

[3] = heated to 230° C. under a nitrogen atmosphere; cited from earlier work

SMILES | solubility in a methanol/water mixture (2:1) [1] | conversion of solid form on drying [2] | conversion of polymorphic form on heating [3]
C[C@@H](O[C@H]1OCCN(Cc2nc(=O)[nH][nH]2)[C@H]1c1ccc(F)cc1)c1cc(C(F)(F)F)cc(C(F)(F)F)c1 [form I, 2-(R)-(1-(R)-(3,5)-bis(trifluoromethyl)-phenyl)ethoxy)-3-(S)-(4-fluoro)phenyl-4-(3-(5-oxo-1H,4H-1,2,4-triazolo)methylmorpholine] | 900 ± 100 µg/mL (≈ 1680 µM) |  | 
CO.C[C@@H](O[C@H]1OCCN(Cc2nc(=O)[nH][nH]2)[C@H]1c1ccc(F)cc1)c1cc(C(F)(F)F)cc(C(F)(F)F)c1 [methanol solvate, Methanol solvate of 2-(R)-(1-(R)-(3,5)-bis(trifluoromethyl)-phenyl)ethoxy)-3-(S)-(4-fluoro)phenyl-4-(3-(5-oxo-1H,4H-1,2,4-triazolo)methylmorpholine] |  | converts to form I of Aprepitant on drying | 
C[C@@H](O[C@H]1OCCN(Cc2nc(=O)[nH][nH]2)[C@H]1c1ccc(F)cc1)c1cc(C(F)(F)F)cc(C(F)(F)F)c1 [Form II of Aprepitant, 2-(R)-(1-(R)-(3,5)-bis(trifluoromethyl)-phenyl)ethoxy)-3-(S)-(4-fluoro)phenyl-4-(3-(5-oxo-1H,4H-1,2,4-triazolo)methylmorpholine] | about 1.3±0.2 mg/ml |  | converts to form I

— patent publication US20110015191A1, “ORGANIC COMPOUNDS” (SANDOZ AG, priority 2007, published 2011)
